Reference: PubChem BioAssay (NCI)
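Compound exposure: 48 hours, 5 concentrations, 96-well plates. GI50 = concentration required for 50% inhibition of growth. TGI: concentration producing complete growth inhibition.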

Key:
Test in all cases: DTP human tumour cell line panel, 48 h
TK-10 renal = tested on: TK-10 renal
SK-MEL-5 melanoma = tested on: SK-MEL-5 melanoma
HCC-2998 colon = tested on: HCC-2998 colon
RPMI-8226 leukemia = tested on: RPMI-8226 leukemia
OVCAR-3 ovarian = tested on: OVCAR-3 ovarian
SK-MEL-28 melanoma = tested on: SK-MEL-28 melanoma
SNB-19 CNS = tested on: SNB-19 CNS
K-562 leukemia = tested on: K-562 leukemia
CAKI-1 renal = tested on: CAKI-1 renal
HL-60(TB) leukemia = tested on: HL-60(TB) leukemia
NCI-H23 lung = tested on: NCI-H23 lung
A498 renal = tested on: A498 renal
MCF7 breast = tested on: MCF7 breast

Row | SMILES | TGI (TK-10 renal) | TGI (SK-MEL-5 melanoma) | TGI (HCC-2998 colon) | TGI (RPMI-8226 leukemia) | TGI (OVCAR-3 ovarian) | TGI (SK-MEL-28 melanoma) | TGI (SNB-19 CNS) | TGI (K-562 leukemia) | TGI (CAKI-1 renal) | TGI (HL-60(TB) leukemia) | TGI (NCI-H23 lung) | TGI (A498 renal) | TGI (MCF7 breast) | GI50 (A498 renal) | GI50 (SK-MEL-5 melanoma) | GI50 (HCC-2998 colon) | GI50 (OVCAR-3 ovarian) | GI50 (K-562 leukemia) | GI50 (CAKI-1 renal) | GI50 (NCI-H23 lung)
1 | O=C(O)c1ccc(Nc2nc3cc(C(F)(F)F)ccc3nc2-c2ccccc2)cc1 | 39.3 µM | > 100 µM | 34.4 µM | 83.1 µM | 28.4 µM | > 100 µM | > 100 µM | 42.7 µM | 50.4 µM | > 100 µM | > 100 µM | – | – | – | – | – | – | – | – | –
2 | CCN(CC)CCNc1ccc2nnn3c4ccccc4c(=O)c1c23 | 22.9 µM | 10.3 µM | 20.9 µM | > 24.2 µM | 23.7 µM | 16 µM | 40.3 µM | 14.8 µM | > 33.7 µM | 8.59 µM | 19.7 µM | 24.2 µM | – | – | – | – | – | – | – | –
3 | O=C(O)CCC(NC(=O)c1ccc(CNc2nc3ccccc3nc2C(=O)O)cc1)C(=O)O (centres undefined) | > 100 µM | > 100 µM | – | > 100 µM | > 100 µM | > 100 µM | > 100 µM | > 100 µM | – | – | > 100 µM | > 100 µM | > 100 µM | – | – | – | – | – | – | –
4 | Nc1ccccc1N=Nc1c(S(=O)(=O)O)cc2cc(S(=O)(=O)O)cc(O)c2c1O | > 100 µM | > 100 µM | > 100 µM | > 100 µM | > 100 µM | > 100 µM | > 100 µM | > 100 µM | > 100 µM | – | > 100 µM | > 100 µM | > 100 µM | – | – | – | – | – | – | –
5 | CCN(CC)C(=S)SS(=O)(=O)c1ccccc1[N+](=O)[O-] | > 90.3 µM | 24.8 µM | > 100 µM | 40.9 µM | 68 µM | 49.9 µM | > 92.8 µM | 50.4 µM | 54.9 µM | > 44.8 µM | 99 µM | > 100 µM | – | – | – | – | – | – | – | –
6 | C[C@]12CC/C(=N\OCCN3CCCCC3)C=C1CCC1C2CC[C@@]2(C)C1CC[C@]2(C)O (some centres undefined) | 34 µM | 32.4 µM | 22.1 µM | 31.5 µM | 42.8 µM | 30.4 µM | 30 µM | 17.9 µM | 23.7 µM | – | 33.5 µM | 15.4 µM | 71.7 µM | – | – | – | – | – | – | –
7 | Cc1cc(C)n(CN(Cn2nc(C)cc2C)c2ccccc2)n1 | > 100 µM | 62.4 µM | – | 47.6 µM | 66.6 µM | 34.7 µM | > 100 µM | 46.1 µM | > 100 µM | 27.3 µM | 40.8 µM | > 100 µM | 68.1 µM | – | – | – | – | – | – | –
8 | CCOC(=O)c1[nH]c2nc(SC)nc(Nc3ccccc3Cl)c2c1N | 56.3 µM | 32.7 µM | > 100 µM | 43.5 µM | 75.4 µM | > 100 µM | 44.5 µM | 40.5 µM | > 100 µM | – | 60.5 µM | 55.9 µM | – | – | – | – | – | – | – | –
9 | CC(=O)Nc1ccc2cc3[nH]c4cc(NC(C)=O)ccc4c3nc2c1 | > 100 µM | > 100 µM | > 100 µM | > 100 µM | > 100 µM | > 100 µM | > 100 µM | > 100 µM | > 100 µM | – | > 100 µM | > 100 µM | > 100 µM | – | – | – | – | – | – | –
10 | C=C1CC(COc2ccc3c(C)cc(=O)oc3c2)(c2ccccc2)OC1=O (centres undefined) | 3.42 µM | 5.49 µM | 10.1 µM | 1.62 µM | 5.59 µM | 8.37 µM | 29 µM | – | 3.55 µM | – | 5.53 µM | 14.1 µM | 2.71 µM | – | – | – | – | – | – | –
11 | Cc1ccc(C2CC(c3cccc(Nc4ccncc4)c3)=NN2c2ccccc2)cc1 (centres undefined) | – | 3.24 µM | 2.96 µM | – | 3.13 µM | – | – | 6.62 µM | 3.02 µM | – | 2.97 µM | 5.63 µM | – | 1.86 µM | 1.79 µM | 1.6 µM | 1.7 µM | 2.11 µM | 1.61 µM | 1.53 µM
12 | O=[N+]([O-])c1nccn1CCCNCCCn1ccnc1[N+](=O)[O-] | > 100 µM | > 100 µM | – | > 100 µM | > 100 µM | > 100 µM | – | > 100 µM | > 100 µM | > 100 µM | > 100 µM | > 100 µM | > 100 µM | – | – | – | – | – | – | –
13 | COC(=O)c1cc(C)n(CN(Cc2ccccc2)Cn2nc(C(=O)OC)cc2C)n1 | > 100 µM | > 100 µM | – | > 62.9 µM | > 100 µM | > 100 µM | > 100 µM | > 100 µM | > 100 µM | – | > 100 µM | > 100 µM | > 100 µM | – | – | – | – | – | – | –
14 | N#CCCN(CCC#N)c1ccc(C(N=Nc2ccc(Cl)cc2)=Nc2ccc(F)cc2)cc1 | > 100 µM | > 100 µM | > 100 µM | > 100 µM | > 100 µM | > 100 µM | > 100 µM | > 100 µM | > 100 µM | – | > 100 µM | > 100 µM | > 100 µM | – | – | – | – | – | – | –
15 | O=C1/C(=C/c2cccs2)NC(=S)N1CN1CCCC(CO)C1 (centres undefined) | > 100 µM | > 100 µM | – | > 100 µM | > 100 µM | > 100 µM | > 100 µM | > 100 µM | – | – | > 100 µM | > 100 µM | > 100 µM | – | – | – | – | – | – | –
16 | CCN(CC)COC(=S)S | > 100 µM | > 100 µM | > 78.1 µM | – | – | > 100 µM | > 100 µM | > 100 µM | > 100 µM | – | > 100 µM | > 100 µM | > 100 µM | – | – | – | – | – | – | –
17 | O=C(c1ccccc1)c1c(CC(O)c2ccccc2)n(C(=O)c2ccccc2)c2ccccc12 (centres undefined) | > 100 µM | > 100 µM | > 100 µM | > 100 µM | > 100 µM | > 100 µM | > 100 µM | > 100 µM | > 100 µM | > 100 µM | 69.5 µM | – | – | – | – | – | – | – | – | –
18 | Cc1c2c(ccc3ccccc32)c[n+]2ccccc12 | > 100 µM | 16 µM | 26 µM | > 100 µM | 19.3 µM | 31.1 µM | 7.89 µM | 37.8 µM | > 100 µM | 68.5 µM | 22.5 µM | – | – | – | – | – | – | – | – | –
19 | CC(=O)Oc1c2oc3cc(O)c(O)cc3c2c(OC(C)=O)c2oc3cc(O)c(O)cc3c12 | 32.9 µM | 38.3 µM | 40.7 µM | – | – | 41.5 µM | 94.2 µM | > 100 µM | 97.2 µM | 13 µM | 7.38 µM | – | – | – | – | – | – | – | – | –
20 | COc1ccccc1NC(=S)Nc1cc(C)ccn1 | > 100 µM | > 100 µM | – | > 100 µM | > 100 µM | > 100 µM | > 100 µM | > 100 µM | > 100 µM | > 100 µM | – | > 100 µM | > 100 µM | – | – | – | – | – | – | –
21 | COc1ccc(C[C@H](N)C(=O)N2C[C@@H](CO)C[C@@H](n3cnc4c(N(C)C)ncnc43)C2)cc1 | > 100 µM | > 100 µM | – | > 100 µM | > 100 µM | > 100 µM | > 100 µM | > 100 µM | > 100 µM | > 100 µM | > 100 µM | – | – | – | – | – | – | – | – | –
22 | CN(C)c1ccc(C2ON=C(c3ccccc3)N2C23CC4CC(CC(C4)C2)C3)cc1 (centres undefined) | > 10 µM | > 10 µM | > 10 µM | > 10 µM | > 10 µM | > 10 µM | > 10 µM | > 10 µM | > 10 µM | > 10 µM | > 10 µM | > 10 µM | – | – | – | – | – | – | – | –
23 | CC1=CC(C)(C)Nc2ccc(CSc3ccccc3)cc21 | > 100 µM | 32.9 µM | 45.1 µM | 31.2 µM | 39.5 µM | > 100 µM | > 100 µM | > 100 µM | > 100 µM | – | > 100 µM | 74.4 µM | 60.9 µM | – | – | – | – | – | – | –
24 | CCOC(=O)N1[C@@H]2CCC[C@@H]2C(=O)[C@@H]2CCC[C@@H]21 | – | > 100 µM | > 100 µM | > 100 µM | > 100 µM | > 100 µM | > 100 µM | > 100 µM | > 100 µM | > 100 µM | > 100 µM | > 100 µM | – | – | – | – | – | – | – | –
25 | O=[N+]([O-])c1cccc2nc3ccccc3c(NCCCN3CCCCC3)c12 | 0.0712 µM | 0.0221 µM | – | 0.0611 µM | 0.026 µM | – | 0.444 µM | 1.12 µM | 0.496 µM | 0.511 µM | 0.0231 µM | < 0.0219 µM | 0.11 µM | – | – | – | – | – | – | –
26 | C[N+](C)([O-])Cc1cc(-c2ccccc2)ccc1O | > 100 µM | > 100 µM | > 100 µM | – | > 100 µM | > 100 µM | > 100 µM | > 100 µM | > 100 µM | – | > 100 µM | > 100 µM | – | – | – | – | – | – | – | –
27 | Cc1ccc(C)n1-n1c(-c2ccccc2)n[nH]c1=O | > 100 µM | > 100 µM | > 100 µM | > 100 µM | > 100 µM | > 100 µM | > 100 µM | > 100 µM | > 100 µM | – | – | > 100 µM | > 100 µM | – | – | – | – | – | – | –
28 | O=[As](O)(O)c1ccc2nc3cc([As](=O)(O)O)ccc3nc2c1 | > 100 µM | > 100 µM | > 100 µM | – | > 100 µM | > 100 µM | > 100 µM | > 100 µM | > 100 µM | – | > 100 µM | > 100 µM | > 100 µM | – | – | – | – | – | – | –
29 | COC(=O)c1c(C(=O)OC)c2c3ccccc3n(C)c2c2c1c1ccccc1n2C | > 100 µM | > 100 µM | > 100 µM | > 100 µM | – | > 100 µM | 83.3 µM | > 100 µM | > 100 µM | – | > 100 µM | > 100 µM | > 100 µM | – | – | – | – | – | – | –
